This note sets out measurements from patent US20250215029A1 (Recludix Pharma, Inc., priority 2022, published 2025).

pIC50: −log10 of the molar value.

T1 sequence (P40763 whole entry): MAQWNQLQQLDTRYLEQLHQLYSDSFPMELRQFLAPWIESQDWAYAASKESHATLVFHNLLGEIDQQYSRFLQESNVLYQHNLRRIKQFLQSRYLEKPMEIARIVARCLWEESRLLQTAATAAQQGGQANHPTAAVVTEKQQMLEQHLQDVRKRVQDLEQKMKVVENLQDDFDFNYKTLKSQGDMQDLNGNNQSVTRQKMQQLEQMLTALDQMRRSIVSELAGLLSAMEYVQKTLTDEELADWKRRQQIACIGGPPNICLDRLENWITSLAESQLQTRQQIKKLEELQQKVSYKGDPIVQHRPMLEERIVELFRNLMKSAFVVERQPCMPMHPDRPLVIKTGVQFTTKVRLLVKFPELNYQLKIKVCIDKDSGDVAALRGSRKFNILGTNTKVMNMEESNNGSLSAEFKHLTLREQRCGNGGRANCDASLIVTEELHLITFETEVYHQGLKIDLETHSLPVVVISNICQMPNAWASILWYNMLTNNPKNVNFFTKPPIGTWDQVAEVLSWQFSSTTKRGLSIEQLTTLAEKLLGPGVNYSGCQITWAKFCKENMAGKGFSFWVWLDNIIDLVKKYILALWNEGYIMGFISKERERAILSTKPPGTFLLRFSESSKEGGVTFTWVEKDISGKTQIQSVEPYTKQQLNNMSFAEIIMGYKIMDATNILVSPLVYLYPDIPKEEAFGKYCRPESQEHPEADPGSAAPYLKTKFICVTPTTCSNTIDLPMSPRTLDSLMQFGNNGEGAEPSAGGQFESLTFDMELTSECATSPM

The assay concerns the target T1, pY705-STAT3 in PBMC (Homo sapiens, UniProt P40763).
T1 construct: Cryopreserved Peripheral Blood Mononuclear Cells (PBMC) are from AllCells; host or cells: cryopreserved PBMC
As to the kind of experiment: MSD-pSTAT-PBMC Assay (pSTAT3, IL-6 stimulated). The class given is cell-based. The settings on record: PBMC, compound 3 hrs, then 10 ng/mL IL-6 for 10 min; Table 115; read-out: STAT3. Summed up:
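pY705-STAT3 was detected electrochemiluminescently on total-STAT3 capture plates, using lysates of human PBMCs given compound for 3 h and then IL-6 (10 ng/mL, 10 min). Values were background-subtracted against unstimulated wells and set relative to DMSO. IC50 was fitted with variable slope.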
For `CCCOC(=O)[C@H](C)NP(=O)(Cc1ccc2sc(C(=O)N[C@H]3CCC[C@H]4CC[C@@H](C(=O)N5CC(c6cnccc6N(C)C)C5)N4C3=O)cc2c1)OCC(F)(F)F` (stereo partly drawn) [Compound 1025, propyl (((2-(((3S,6S,9aS)-3-(3-(4-(dimethylamino)pyridin-3-yl)azetidine-1-carbonyl)-5-oxooctahydro-1H-pyrrolo[1,2-a]azepin-6-yl)carbamoyl)benzo [b]thiophen-5-yl)methyl)(2,2,2-trifluoroethoxy)phosphoryl)-L-alaninate], the pIC50 was above 7.00. Under `COc1ccncc1C1CN(C(=O)[C@@H]2CC[C@@H]3CCC[C@H](NC(=O)c4cc5cc([C@H](F)[P@@](=O)(N[C@@H](C)C(=O)OC(C)C)Oc6ccccc6)ccc5s4)C(=O)N32)C1` (single isomer, unassigned) [Compound 1023] stands 6.00 to 7.00; under `CCCOC(=O)[C@H](C)NP(=O)(Cc1ccc2sc(C(=O)N[C@H]3CCC[C@H]4CC[C@@H](C(=O)N5CC(c6cccnc6)C5)N4C3=O)cc2c1)OCC(C)(F)F` (stereo partly drawn) [Compound 437, propyl ((2,2-difluoropropoxy)((2-(((3S,6S,9aS)-5-oxo-3-(3-(pyridin-3-yl)azetidine-1-carbonyl)octahydro-1H-pyrrolo[1,2-a]azepin-6-yl)carbamoyl)benzo [b]thiophen-5-yl)methyl)phosphoryl)-L-alaninate], 6.00 to 7.00. For the compound `Cc1ccncc1C1CN(C(=O)[C@@H]2CC[C@@H]3CCC[C@H](NC(=O)c4cc5cc(C(F)(F)P(=O)(OCCSC(=O)C(C)(C)C)OCCSC(=O)C(C)(C)C)ccc5s4)C(=O)N32)C1` [Compound 968, S,S′-((((difluoro(2-(((3S,6S,9aS)-3-(3-(4-methylpyridin-3-yl)azetidine-1-carbonyl)-5-oxooctahydro-1H-pyrrolo[1,2-a]azepin-6-yl)carbamoyl)benzo [b]thiophen-5-yl)methyl)phosphoryl)bis(oxy))bis(ethane-2,1-diyl))bis(2,2-dimethyl-propanethioate)], the pIC50 is above 7.00.

`CCCOC(=O)C1(NP(=O)(Cc2ccc3sc(C(=O)N[C@H]4CCC[C@H]5CC[C@@H](C(=O)N6CC(c7cccnc7)C6)N5C4=O)cc3c2)Oc2ccccc2)CC1` (stereo partly drawn) [Compound 434, propyl 1-((((2-(((3S,6S,9aS)-5-oxo-3-(3-(pyridin-3-yl)azetidine-1-carbonyl)octahydro-1H-pyrrolo[1,2-a]azepin-6-yl)carbamoyl)benzo [b]thiophen-5-yl)methyl)(phenoxy)phosphoryl)amino) cyclopropane-1-carboxylate]: the pIC50 is 6.00 to 7.00.

Regarding `CCCOC(=O)[C@H](C)NP(=O)(Cc1ccc2sc(C(=O)N[C@H]3CCC[C@H]4CC[C@@H](C(=O)N5CC(c6cccc(C#N)n6)C5)N4C3=O)cc2c1)Oc1ccccc1` (stereo partly drawn) [Compound 289, propyl (((2-(((3S,6S,9aS)-3-(3-(6-cyanopyridin-2-yl)azetidine-1-carbonyl)-5-oxooctahydro-1H-pyrrolo[1,2-a]azepin-6-yl)carbamoyl)benzo [b]thiophen-5-yl)methyl)(phenoxy)phosphoryl)-L-alaninate], the pIC50 was above 7.00. Consider `COC1(c2cccnc2)CN(C(=O)[C@@H]2CC[C@@H]3CCCC[C@H](NC(=O)c4cc5cc(CP(=O)(N[C@@H](C)C(=O)OCC(C)C)Oc6ccccc6)ccc5s4)C(=O)N32)C1` (stereo partly drawn) [Compound 281, isobutyl (((2-(((3S,6S,10aS)-3-(3-methoxy-3-(pyridin-3-yl)azetidine-1-carbonyl)-5-oxodecahydropyrrolo [1,2-a]azocin-6-yl)carbamoyl)benzo [b]thiophen-5-yl)methyl)(phenoxy)phosphoryl)-L-alaninate], for which the pIC50 was above 7.00.

Consider `CCCCOC(=O)[C@H](C)NP(=O)(Oc1ccccc1)C(F)(F)c1ccc2sc(C(=O)N[C@H]3CCC[C@H]4CC[C@@H](C(=O)N5CC(c6cccnc6)C5)N4C3=O)cc2c1` (stereo partly drawn) [Compound 254, butyl ((difluoro(2-(((3S,6S,9aS)-5-oxo-3-(3-(pyridin-3-yl)azetidine-1-carbonyl)octahydro-1H-pyrrolo[1,2-a]azepin-6-yl)carbamoyl)benzo [b]thiophen-5-yl)methyl)(phenoxy)phosphoryl)-L-alaninate], for which the pIC50 was 6.00 to 7.00. For the compound `COc1ccncc1C1CN(C(=O)[C@@H]2CC[C@@H]3CCC[C@H](NC(=O)c4cc5cc([C@@H](F)[P@@](=O)(N[C@@H](C)C(=O)OC(C)C)Oc6ccccc6)ccc5s4)C(=O)N32)C1` (single isomer, unassigned) [Compound 1053], the pIC50 is above 7.00. Under `CCCOC(=O)[C@H](C)N[P@](=O)(Oc1ccccc1)[C@H](F)c1ccc2sc(C(=O)N[C@H]3CCC[C@H]4CC[C@@H](C(=O)N5CC(c6cnccc6OC)C5)N4C3=O)cc2c1` (single isomer, unassigned) [Compound 999] stands above 7.00; under `C[C@H](NP(=O)(Cc1ccc2sc(C(=O)N[C@H]3CCC[C@H]4CC[C@@H](C(=O)N5CC(c6cccnc6)C5)N4C3=O)cc2c1)Oc1ccccc1)C(=O)OCC(C)(C)C` (stereo partly drawn) [Compound 256, neopentyl (((2-(((3S,6S,9aS)-5-oxo-3-(3-(pyridin-3-yl)azetidine-1-carbonyl)octahydro-1H-pyrrolo[1,2-a]azepin-6-yl)carbamoyl)benzo [b]thiophen-5-yl)methyl)(phenoxy)phosphoryl)-L-alaninate], above 7.00. For `CCCOC(=O)[C@H](C)NP(=O)(Cc1ccc2sc(C(=O)N[C@H]3CC[C@@H](C)C[C@H]4CC[C@@H](C(=O)N5CC(c6cnccc6F)C5)N4C3=O)cc2c1)Oc1ccccc1` (stereo partly drawn) [Compound 988, propyl (((2-(((3S,6S,9R,10aR)-3-(3-(4-fluoropyridin-3-yl)azetidine-1-carbonyl)-9-methyl-5-oxodecahydropyrrolo [1,2-a]azocin-6-yl)carbamoyl)benzo [b]thiophen-5-yl)methyl)(phenoxy)phosphoryl)-L-alaninate] the value was above 7.00. As for `CCCOC(=O)[C@H](C)NP(=O)(Oc1ccccc1)[C@H](F)c1ccc2sc(C(=O)N[C@H]3CCC[C@H]4CC[C@@H](C(=O)N5CC(c6cnccc6N6CC(OC)C6)C5)N4C3=O)cc2c1` (stereo partly drawn) [Compound 1063, propyl (((S)-fluoro(2-(((3S,6S,9aS)-3-(3-(4-(3-methoxyazetidin-1-yl)pyridin-3-yl)azetidine-1-carbonyl)-5-oxooctahydro-1H-pyrrolo[1,2-a]azepin-6-yl)carbamoyl)benzo [b]thiophen-5-yl)methyl)(phenoxy)phosphoryl)-L-alaninate], the pIC50 is above 7.00. With `CCCOC(=O)[C@H](C)N[P@](=O)(Oc1ccccc1)[C@@H](F)c1ccc2sc(C(=O)N[C@H]3C[C@@H](C)C[C@H]4CC[C@@H](C(=O)N5CC(c6cnccc6OC(C)C)C5)N4C3=O)cc2c1` (single isomer, unassigned) [Compound 1033], the pIC50 was above 7.00. Consider `CCCOC(=O)[C@H](C)N[P@@](=O)(Oc1ccccc1)[C@@H](F)c1ccc2sc(C(=O)N[C@H]3C[C@H](C)C[C@H]4CC[C@@H](C(=O)N5CC(c6cnccc6OC)C5)N4C3=O)cc2c1` (single isomer, unassigned) [Compound 1041], for which the pIC50 was above 7.00.
